According to the NIST ThermoML archive (doi:10.1016/j.fluid.2012.09.001):
“And” between values parts separate entries of the source, which are not always exact repeats. Equal values may be shown once. Numbers after ± are expanded uncertainties.

Assay: molar heat capacity at constant pressure
Settings: 101.33 kPa, Liquid, Flow calorimetry

Cl/C=C\Cl [(Z)-1,2-dichloroethene]
Settings | molar heat capacity at constant pressure
258.09 K | 110.33 ± 2.2 J/K/mol and 110.08 ± 2.2 J/K/mol
263.2 K | 110.33 ± 2.2 J/K/mol and 110.42 ± 2.2 J/K/mol
268.3 K | 110.58 ± 2.2 J/K/mol and 110.75 ± 2.2 J/K/mol
273.41 K | 111 ± 2.2 J/K/mol
278.51 K | 111.08 ± 2.2 J/K/mol and 111 ± 2.2 J/K/mol
283.62 K | 111.41 ± 2.2 J/K/mol and 111.58 ± 2.2 J/K/mol
288.72 K | 111.91 ± 2.2 J/K/mol and 111.75 ± 2.2 J/K/mol
293.83 K | 112.58 ± 2.3 J/K/mol [middle of 4 runs]
298.93 K | 112.99 ± 2.3 J/K/mol and 112.66 ± 2.3 J/K/mol and 112.49 ± 2.3 J/K/mol
304.04 K | 113.41 ± 2.3 J/K/mol and 113.49 ± 2.3 J/K/mol
309.14 K | 113.91 ± 2.3 J/K/mol and 113.74 ± 2.3 J/K/mol

ClC=C(Cl)Cl [trichloroethene]
Settings | molar heat capacity at constant pressure
260.64 K | 126.71 ± 2.5 J/K/mol and 126.63 ± 2.5 J/K/mol
265.75 K | 126.71 ± 2.5 J/K/mol and 126.8 ± 2.5 J/K/mol and 126.96 ± 2.5 J/K/mol
270.85 K | 126.96 ± 2.5 J/K/mol [middle of 4 runs]
275.96 K | 127.13 ± 2.5 J/K/mol [middle of 4 runs]
281.06 K | 127.38 ± 2.5 J/K/mol and 127.46 ± 2.6 J/K/mol and 127.79 ± 2.6 J/K/mol
286.17 K | 127.96 ± 2.6 J/K/mol and 127.88 ± 2.6 J/K/mol and 128.38 ± 2.6 J/K/mol
291.27 K | 128.38 ± 2.6 J/K/mol [middle of 4 runs]
296.38 K | 128.54 ± 2.6 J/K/mol [middle of 4 runs]
301.48 K | 128.96 ± 2.6 J/K/mol [middle of 4 runs]
309.14 K | 129.21 ± 2.6 J/K/mol and 129.04 ± 2.6 J/K/mol and 130.29 ± 2.6 J/K/mol
319.35 K | 130.29 ± 2.6 J/K/mol and 131.12 ± 2.6 J/K/mol
329.56 K | 130.95 ± 2.6 J/K/mol and 131.12 ± 2.6 J/K/mol

CCC(Cl)Cl [1,1-dichloropropane]
Settings | molar heat capacity at constant pressure
268.3 K | 148.83 ± 3 J/K/mol and 149.66 ± 3 J/K/mol
268.31 K | 149.49 ± 3 J/K/mol
278.51 K | 150.33 ± 3 J/K/mol and 150.24 ± 3 J/K/mol and 149.99 ± 3 J/K/mol
288.72 K | 151.82 ± 3 J/K/mol and 151.99 ± 3 J/K/mol and 152.4 ± 3.1 J/K/mol
298.93 K | 152.82 ± 3.1 J/K/mol and 153.65 ± 3.1 J/K/mol
309.14 K | 155.23 ± 3.1 J/K/mol and 154.57 ± 3.1 J/K/mol and 154.15 ± 3.1 J/K/mol
319.35 K | 155.9 ± 3.1 J/K/mol and 157.73 ± 3.2 J/K/mol and 155.56 ± 3.1 J/K/mol
329.56 K | 157.23 ± 3.1 J/K/mol and 157.31 ± 3.1 J/K/mol and 157.64 ± 3.2 J/K/mol
339.77 K | 158.97 ± 3.2 J/K/mol and 159.06 ± 3.2 J/K/mol and 159.31 ± 3.2 J/K/mol

CC(C)(Cl)Cl [2,2-dichloropropane]
Settings | molar heat capacity at constant pressure
260.64 K | 150.33 ± 3 J/K/mol and 150.49 ± 3 J/K/mol and 150.24 ± 3 J/K/mol
268.3 K | 151.41 ± 3 J/K/mol and 151.24 ± 3 J/K/mol and 150.99 ± 3 J/K/mol
278.52 K | 152.32 ± 3 J/K/mol and 152.24 ± 3 J/K/mol
288.72 K | 153.98 ± 3.1 J/K/mol and 153.82 ± 3.1 J/K/mol and 154.07 ± 3.1 J/K/mol
298.93 K | 155.65 ± 3.1 J/K/mol and 154.98 ± 3.1 J/K/mol
309.14 K | 157.39 ± 3.2 J/K/mol and 157.14 ± 3.1 J/K/mol and 156.98 ± 3.1 J/K/mol
319.35 K | 159.22 ± 3.2 J/K/mol and 158.81 ± 3.2 J/K/mol and 158.89 ± 3.2 J/K/mol
329.56 K | 161.13 ± 3.2 J/K/mol and 160.22 ± 3.2 J/K/mol

CC(Cl)CCl (configuration not stated) [1,2-dichloropropane]
Settings | molar heat capacity at constant pressure
268.3 K | 153.32 ± 3.1 J/K/mol and 152.99 ± 3.1 J/K/mol
278.51 K | 154.15 ± 3.1 J/K/mol and 153.9 ± 3.1 J/K/mol
288.72 K | 155.4 ± 3.1 J/K/mol and 155.15 ± 3.1 J/K/mol
298.93 K | 156.81 ± 3.1 J/K/mol and 156.64 ± 3.1 J/K/mol
309.14 K | 158.06 ± 3.2 J/K/mol and 157.73 ± 3.2 J/K/mol
319.35 K | 159.39 ± 3.2 J/K/mol and 159.22 ± 3.2 J/K/mol
329.56 K | 161.05 ± 3.2 J/K/mol and 161.22 ± 3.2 J/K/mol
339.77 K | 162.8 ± 3.3 J/K/mol

ClC(Cl)(Cl)c1ccccc1 [(trichloromethyl)benzene]
Settings | molar heat capacity at constant pressure
260.64 K | 209.61 ± 4.2 J/K/mol and 209.36 ± 4.2 J/K/mol and 209.11 ± 4.2 J/K/mol
265.75 K | 210.94 ± 4.2 J/K/mol and 210.44 ± 4.2 J/K/mol and 210.27 ± 4.2 J/K/mol
270.85 K | 211.44 ± 4.2 J/K/mol and 211.35 ± 4.2 J/K/mol and 211.19 ± 4.2 J/K/mol
275.96 K | 212.52 ± 4.3 J/K/mol and 212.77 ± 4.3 J/K/mol
281.06 K | 214.18 ± 4.3 J/K/mol and 213.93 ± 4.3 J/K/mol
286.17 K | 215.59 ± 4.3 J/K/mol and 215.34 ± 4.3 J/K/mol
291.27 K | 217.09 ± 4.3 J/K/mol and 217.01 ± 4.3 J/K/mol and 216.92 ± 4.3 J/K/mol
296.38 K | 217.76 ± 4.4 J/K/mol and 217.92 ± 4.4 J/K/mol and 218.01 ± 4.4 J/K/mol
301.48 K | 219.34 ± 4.4 J/K/mol and 219.17 ± 4.4 J/K/mol and 219.25 ± 4.4 J/K/mol
309.14 K | 220.75 ± 4.4 J/K/mol
319.35 K | 223.83 ± 4.5 J/K/mol
329.56 K | 226.49 ± 4.5 J/K/mol
339.77 K | 228.56 ± 4.6 J/K/mol
349.98 K | 230.89 ± 4.6 J/K/mol

Cl/C=C/Cl [(E)-1,2-dichloroethene]
Settings | molar heat capacity at constant pressure
268.3 K | 112.74 ± 2.3 J/K/mol [middle of 4 runs]
278.51 K | 112.83 ± 2.3 J/K/mol [middle of 4 runs]
288.72 K | 113.41 ± 2.3 J/K/mol [middle of 4 runs]
298.93 K | 113.99 ± 2.3 J/K/mol [middle of 4 runs]
309.14 K | 114.49 ± 2.3 J/K/mol [middle of 4 runs]
